Values after ≈ are worked out from the molar mass of the structure shown. Like-named read-outs stand apart in the source and are kept apart here.
Key:
[1] = Toxicity in cultures of 2.2.15 cells, neutral red dye uptake; format: cell-based; conditions: human, 50 % inhibit of cell proliferation, read-out: cytotoxic concentration (CC 50)
Procedure: (§1) The protocol for essaying anti-HBV compounds in cultures of 2.2.15 cells can be briefly summarized as follows (Korba and Milman, 1991, Antiviral Res. 217:217) : • * Chronically HBV-producing human liver cells (Acs, et al, 1987, PNAS 84:4641) are seeded into 24 well tissue culture plates and grown to confluence. • * Test compounds are then added daily for a continuous 9 day period. Culture medium (changed daily during the treatment period) is collected and stored for analysis of extracellular (virion) HBV DNA after 0,3,6 and 9 days of treatment. • * Treated cells are lysed 24 hours following day 9 of treatment for the analysis of intracellular HBV genomic forms. • * HBV DNA is then analyzed in a quantitative and qualitative manner for overall levels of HBV DNA (both extracellular and intracellular DNA) and the relative rate of HBV replication (intracellular DNA). The protocol for determining toxicity of compounds in cultures of 2.2.15 cells can be briefly summarized as follows (Korba and Gerin, submited for publication) : • * 2.2.15 cells were grown to confluence in 96 well fat-bottomed tissue culture plates and treated with compounds (in 0.2 ml culture medium/well) as described above. Four concentrations of each compound were assayed, each in triplicate cultures, 3 to 10-fold steps. • * Untreated control cultures were maintained on each 96 well plate.

[2] = tested on: Trichomonas vaginalis; test: In vitro studies against Trichomonas vaginalis; format: cell-based; conditions: for MIC: in vitro, Trichomonas vaginalis, read-out: Minimum Inhibitory Concentration
[3] = tested on: HBV; test: Antiviral activity against HBV replication in cultures of 2.2.15 cells; format: cell-based; conditions: for selective index SI: HBV, CC 50/EC 50; for EC50: Hepatitis B virus, 216 h, read-out: effective concentration (EC 50)
Procedure: as §1

[4] = tested on: Hymenolepis nana; test: Activity of aqueous compositions on helminths; conditions: aqueous composition (100 g) containing 10 g active agent
Text: (§2) Aqueous compositions (100 g) containing 10 g of an active agent have been prepared.

[5] = tested on: Bladtocystis hominis; test: Activity of aqueous compositions on protozoa; conditions: aqueous composition (100 g) containing 10 g active agent
Text: as §2

[6] = tested on: Septata intestinalis; test: Activity of aqueous compositions on protozoa; conditions: aqueous composition (100 g) containing 10 g active agent
Text: as §2

[7] = tested on: Staphylococcus aureus; test: Activity of aqueous compositions on aerobic bacteria; conditions: aqueous composition (100 g) containing 10 g active agent
Text: as §2

[8] = tested on: Trichuris trichiura; test: Activity of aqueous compositions on helminths; conditions: aqueous composition (100 g) containing 10 g active agent
Text: as §2

[9] = tested on: Protens vulgaris; test: Activity of aqueous compositions on aerobic bacteria; conditions: aqueous composition (100 g) containing 10 g active agent
Text: as §2

[10] = tested on: Candida Albicans; test: Activity of aqueous compositions on fungus; conditions: aqueous composition (100 g) containing 10 g active agent
Text: as §2

[11] = tested on: Enterocytozoon bieneusi; test: Activity of aqueous compositions on protozoa; conditions: aqueous composition (100 g) containing 10 g active agent
Text: as §2

[12] = tested on: Necator americanus; test: Activity of aqueous compositions on helminths; conditions: aqueous composition (100 g) containing 10 g active agent
Text: as §2

[13] = tested on: Cryptosporidium parvum; test: Activity of aqueous compositions on protozoa; conditions: aqueous composition (100 g) containing 10 g active agent
Text: as §2

[14] = tested on: Escherichia coli; test: Activity of aqueous compositions on aerobic bacteria; conditions: aqueous composition (100 g) containing 10 g active agent
Text: as §2

[15] = tested on: Microsporum audovini; test: Activity of aqueous compositions on fungus; conditions: aqueous composition (100 g) containing 10 g active agent
Text: as §2

[16] = tested on: Enterobius vermicularis; test: Activity of aqueous compositions on helminths; conditions: aqueous composition (100 g) containing 10 g active agent
Text: as §2

[17] = tested on: Ascaris lumbricoides; test: Activity of aqueous compositions on helminths; conditions: aqueous composition (100 g) containing 10 g active agent
Text: as §2

[18] = tested on: Epidermophyton flocosum; test: Activity of aqueous compositions on fungus; conditions: aqueous composition (100 g) containing 10 g active agent
Text: as §2

[19] = tested on: Strongyloïdes stercoralis; test: Activity of aqueous compositions on helminths; conditions: aqueous composition (100 g) containing 10 g active agent
Text: as §2

[20] = tested on: Taenia saginata; test: Activity of aqueous compositions on helminths; conditions: aqueous composition (100 g) containing 10 g active agent
Text: as §2

[21] = tested on: Trychophyton Mentagrophytes; test: Activity of aqueous compositions on fungus; conditions: aqueous composition (100 g) containing 10 g active agent
Text: as §2

[22] = tested on: Taenia solium; test: Activity of aqueous compositions on helminths; conditions: aqueous composition (100 g) containing 10 g active agent
Text: as §2

[23] = tested on: Anycylosloma duodenale; test: Activity of aqueous compositions on helminths; conditions: aqueous composition (100 g) containing 10 g active agent
Text: as §2

[24] = tested on: Encamoeba dispar; test: Activity of aqueous compositions on protozoa; conditions: aqueous composition (100 g) containing 10 g active agent
Text: as §2

[25] = tested on: Peptococcus species; test: Activity of aqueous compositions on anaerobic bacteria; conditions: aqueous composition (100 g) containing 10 g active agent
Text: as §2

[26] = tested on: Peptostreptococcus SPP; test: as above; conditions: aqueous composition (100 g) containing 10 g active agent
Text: as §2

[27] = tested on: Trichomonas vaginalis; test: Activity of aqueous compositions on protozoa; conditions: aqueous composition (100 g) containing 10 g active agent
Text: as §2

[28] = tested on: Endolimax nana; test: Activity of aqueous compositions on protozoa; conditions: aqueous composition (100 g) containing 10 g active agent
Text: as §2

[29] = tested on: Trichomonas intestinalis; test: Activity of aqueous compositions on protozoa; conditions: aqueous composition (100 g) containing 10 g active agent
Text: as §2

[30] = tested on: Giarda lamblia; test: Activity of aqueous compositions on protozoa; conditions: aqueous composition (100 g) containing 10 g active agent
Text: as §2

[31] = tested on: Diencamoeba fragilis; test: Activity of aqueous compositions on protozoa; conditions: aqueous composition (100 g) containing 10 g active agent
Text: as §2

[32] = tested on: Clostridum species; test: Activity of aqueous compositions on anaerobic bacteria; conditions: aqueous composition (100 g) containing 10 g active agent
Text: as §2

[33] = tested on: Bacceroides species; test: as above; conditions: aqueous composition (100 g) containing 10 g active agent
Text: as §2

[34] = tested on: Balancidium coli; test: Activity of aqueous compositions on protozoa; conditions: aqueous composition (100 g) containing 10 g active agent
Text: as §2

[35] = tested on: Fusobacterium SPP; test: Activity of aqueous compositions on anaerobic bacteria; conditions: aqueous composition (100 g) containing 10 g active agent
Text: as §2

[36] = tested on: Encamoeba histolytica; test: Activity of aqueous compositions on protozoa; conditions: aqueous composition (100 g) containing 10 g active agent
Text: as §2

[37] = tested on: Entamoeba coli; test: Activity of aqueous compositions on protozoa; conditions: aqueous composition (100 g) containing 10 g active agent
Text: as §2

[38] = tested on: Isospora belli; test: Activity of aqueous compositions on protozoa; conditions: aqueous composition (100 g) containing 10 g active agent
Text: as §2

Structure (SMILES) | CC50 at 9 days [1] | MIC [2] | selective index SI [3] | ACTIVITY [4] | ACTIVITY [5] | ACTIVITY [6] | ACTIVITY [7] | ACTIVITY [9] | ACTIVITY [10] | ACTIVITY [11] | ACTIVITY [13] | ACTIVITY [14] | ACTIVITY [15] | ACTIVITY [18] | ACTIVITY [19] | ACTIVITY [20] | ACTIVITY [21] | ACTIVITY [22] | ACTIVITY [24] | ACTIVITY [25] | further results
O=C(Nc1ncc([N+](=O)[O-])s1)c1ccccc1O [Compound A, 2-(hydroxy)-N-(5-nitro-2-thiazolyl) benzamide] | > 1000 µg/mL | 1 to 1.25 µg/mL (≈ 3.77 to 4.71 µM) | higher than 500 | – | – | – | – | – | – | – | – | – | – | – | – | – | – | – | – | – | onset of action ([2]; in vitro studies): substantially immediate action; EC50 [3]: 1.8 ± 0.1 µg/mL (≈ 6.79 µM)
Cc1ncc([N+](=O)[O-])n1CCO [Compound P5, Metronidazole] | – | – | – | No | No | No | No | No | No | No | No | No | No | No | No | No | No | No | – | – | ACTIVITY [8]: No; ACTIVITY [12]: No; ACTIVITY [16]: No; ACTIVITY [17]: No; ACTIVITY [23]: No
CC(=O)Oc1ccccc1C(=O)Nc1ncc([N+](=O)[O-])s1 [Compound B, 2-(acetolyloxy)-N-(5-nitro 2-thiazolyl) benzamide] | – | 0.5 to 1.25 µg/mL (≈ 1.63 to 4.07 µM) | – | – | – | – | – | – | – | – | – | – | – | – | – | – | – | – | – | – | –
CCCSc1ccc2nc(NC(=O)OC)[nH]c2c1 [Compound P3, Albendazole] | – | – | – | No | No | No | No | No | No | No | No | No | – | – | No | No | – | No | No | No | ACTIVITY [26]: No; ACTIVITY [27]: No; ACTIVITY [28]: No; ACTIVITY [29]: No; ACTIVITY [30]: No; ACTIVITY [31]: No; ACTIVITY [32]: No; ACTIVITY [33]: No; ACTIVITY [34]: No; ACTIVITY [35]: No; ACTIVITY [36]: No; ACTIVITY [37]: No
Nc1ccn([C@H]2CC[C@@H](CO)O2)c(=O)n1 [Zalcitabine] | 261 ± 24 µg/mL (≈ 1240 µM) | – | about 145 | – | – | – | – | – | – | – | – | – | – | – | – | – | – | – | – | – | EC50 ([3]; HBV replication in 2.2.15 cells, 9 day treatment): 1.8 ± 0.2 µg/mL (≈ 8.52 µM)
COC(=O)Nc1nc2ccc(C(=O)c3ccccc3)cc2[nH]1 [Compound P4, Mebendazole] | – | – | – | No | No | No | No | No | No | No | No | No | No | No | No | No | No | No | No | No | ACTIVITY [38]: No; ACTIVITY [26]: No; ACTIVITY [27]: No; ACTIVITY [28]: No; ACTIVITY [29]: No; ACTIVITY [30]: No; ACTIVITY [31]: No; ACTIVITY [32]: No; ACTIVITY [33]: No; ACTIVITY [34]: No; ACTIVITY [35]: No; ACTIVITY [36]: No; ACTIVITY [37]: No

Reference: patent EP0755386B1, “BENZAMIDE DERIVATIVE, COMPOSITIONS CONTAINING SAID DERIVATIVE AND USE THEREOF” (Romark Laboratories, L.C., priority 1994, dated 1995)
